# Measured values published in ChEMBL document CHEMBL4699453, “Correlations between functional porphyrin positions and accumulation in cancer cells” (Bioorg Med Chem Lett, 2020).
# What was measured:
# Albumin [1] = molecular target: T1, Albumin (Bos taurus, UniProt P02769); assay: Binding affinity to bovine serum albumin assessed as Stem-Volmer quenching constant by fluorescence based Stern-Volmer plot analysis; details: cattle
# [2] = Drug uptake in human MCF7 cells at 10 uM incubated for 24 hrs by fluorescence based assay; assay type: ADME, cell-based; details: mcf7, 24 h
# [3] = Drug uptake in human MCF7 cells at 10 uM incubated for 2 hrs by fluorescence based assay; assay type: ADME, cell-based; details: mcf7, 2 h
# Albumin [4] = molecular target: T1, Albumin; assay: Binding affinity to bovine serum albumin assessed as binding constant by fluorescence based Stern-Volmer plot analysis; details: cattle
# T1 sequence (P02769 whole entry): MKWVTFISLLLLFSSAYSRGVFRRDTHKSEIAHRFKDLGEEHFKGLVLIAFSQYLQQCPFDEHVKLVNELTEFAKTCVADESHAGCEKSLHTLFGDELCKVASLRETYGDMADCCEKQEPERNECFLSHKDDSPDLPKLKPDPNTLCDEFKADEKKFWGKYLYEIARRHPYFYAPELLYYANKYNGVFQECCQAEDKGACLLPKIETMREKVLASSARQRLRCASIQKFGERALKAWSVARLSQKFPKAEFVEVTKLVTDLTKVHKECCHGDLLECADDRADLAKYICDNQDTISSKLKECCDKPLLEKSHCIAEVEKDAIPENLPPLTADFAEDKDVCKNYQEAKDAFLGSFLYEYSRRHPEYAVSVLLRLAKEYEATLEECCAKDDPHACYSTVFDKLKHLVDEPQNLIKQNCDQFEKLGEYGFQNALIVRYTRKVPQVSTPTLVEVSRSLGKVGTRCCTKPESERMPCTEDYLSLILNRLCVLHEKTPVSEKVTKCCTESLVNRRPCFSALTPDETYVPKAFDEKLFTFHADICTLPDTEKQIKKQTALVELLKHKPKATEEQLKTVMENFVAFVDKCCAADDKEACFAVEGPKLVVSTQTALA
Structure (SMILES),KSV (Albumin [1]),Drug uptake [2],Drug uptake [3],Ka (Albumin [4])
CCCCCCCCCCCCCCCC(=O)Nc1ccc(-c2c3nc(c(-c4ccccc4)c4ccc([nH]4)c(-c4ccccc4)c4nc(c(-c5ccccc5)c5ccc2[nH]5)C=C4)C=C3)cc1,4.09 10^4L/mol,4.4 10^-2microM,3 10^-2microM,3.12 10^4L/mol
CC(=O)NC1=Cc2nc1c(-c1ccccc1)c1ccc([nH]1)c(-c1ccccc1)c1nc(c(-c3ccccc3)c3ccc([nH]3)c2-c2ccccc2)C=C1,4.33 10^4L/mol,4.3 10^-2microM,3.3 10^-2microM,2.86 10^4L/mol
CC(=O)Nc1ccc(-c2c3nc(c(-c4ccccc4)c4ccc([nH]4)c(-c4ccccc4)c4nc(c(-c5ccccc5)c5ccc2[nH]5)C=C4)C=C3)cc1,4.96 10^4L/mol,5.8 10^-2microM,5.8 10^-2microM,3.84 10^4L/mol
CCCCCCCCCCCCCCCC(=O)NC1=Cc2nc1c(-c1ccccc1)c1ccc([nH]1)c(-c1ccccc1)c1nc(c(-c3ccccc3)c3ccc([nH]3)c2-c2ccccc2)C=C1,3.03 10^4L/mol,1.7 10^-2microM,1.7 10^-2microM,1.98 10^4L/mol
